Legend:
hCOX-1 = hCOX-1 (Homo sapiens, UniProt P23219); details: enzyme specific activity in the presence of arachidonic acid 100 µM and the inhibitor
Description: (§1) Functional analysis of ovine and human COX-1 catalytic activity was determined by monitoring O2 consumption by using an Oxytherm electrode unit (Hansatech), in the presence of arachidonic acid and different inhibitors. The instrument is equipped with a Clark-type oxygen electrode to monitor the dissolved oxygen concentration in a sealed measurement chamber over the time. Oxygen consumption was measured at 37 °C directly in a 1000 µL reaction vessel. Briefly, it follows the description of a typical assay: Oxygraph buffer (the opportune volume is adjusted to 1000 µL of final volume according to the volume of the protein), 5 µM hemin (1 µL), 100 µM arachidonic acid (20 µL) and inhibitor (10 µL) at the opportune concentrations.
(§2) Oxygen consumption determination (μmol/ml O2) started after the addition of the ovine or human COX-1/Sf9 sonicated pellet (C = 2.6 mg/ml) to the mixture containing Oxygraph buffer, arachidonic acid and test compounds at the opportune concentrations. Assay mixture was allowed to equilibrate in the reaction vessel at 37 °C for several minutes until steady baseline was recorded. Uninfected Sf9 sonicated cells were used as a negative control. Stock solutions were prepared in a minimum volume of vehicle (DMSO).

oCOX-1 = target: T1, oCOX-1 (Ovis aries, UniProt P05979); details: enzyme specific activity in the presence of arachidonic acid 100 µM and the inhibitor
T1 sequence (P05979 25-600): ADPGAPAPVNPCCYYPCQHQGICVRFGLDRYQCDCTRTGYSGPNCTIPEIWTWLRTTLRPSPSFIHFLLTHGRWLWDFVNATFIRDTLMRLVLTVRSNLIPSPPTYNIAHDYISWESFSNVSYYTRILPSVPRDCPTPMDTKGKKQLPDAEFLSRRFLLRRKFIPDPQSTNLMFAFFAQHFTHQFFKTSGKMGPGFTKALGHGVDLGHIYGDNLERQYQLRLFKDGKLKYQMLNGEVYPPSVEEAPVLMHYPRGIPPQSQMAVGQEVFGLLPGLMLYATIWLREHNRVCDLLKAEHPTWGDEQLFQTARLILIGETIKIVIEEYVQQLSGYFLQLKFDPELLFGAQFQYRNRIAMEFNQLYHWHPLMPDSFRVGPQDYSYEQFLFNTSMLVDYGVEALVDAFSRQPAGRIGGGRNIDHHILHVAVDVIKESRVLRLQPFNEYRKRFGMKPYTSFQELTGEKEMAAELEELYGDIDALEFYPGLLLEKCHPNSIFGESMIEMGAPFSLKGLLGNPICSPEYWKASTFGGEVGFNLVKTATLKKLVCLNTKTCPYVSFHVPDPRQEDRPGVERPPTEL
Description: as §1, §2

Chain of hCOX-1 (P23219 24-599): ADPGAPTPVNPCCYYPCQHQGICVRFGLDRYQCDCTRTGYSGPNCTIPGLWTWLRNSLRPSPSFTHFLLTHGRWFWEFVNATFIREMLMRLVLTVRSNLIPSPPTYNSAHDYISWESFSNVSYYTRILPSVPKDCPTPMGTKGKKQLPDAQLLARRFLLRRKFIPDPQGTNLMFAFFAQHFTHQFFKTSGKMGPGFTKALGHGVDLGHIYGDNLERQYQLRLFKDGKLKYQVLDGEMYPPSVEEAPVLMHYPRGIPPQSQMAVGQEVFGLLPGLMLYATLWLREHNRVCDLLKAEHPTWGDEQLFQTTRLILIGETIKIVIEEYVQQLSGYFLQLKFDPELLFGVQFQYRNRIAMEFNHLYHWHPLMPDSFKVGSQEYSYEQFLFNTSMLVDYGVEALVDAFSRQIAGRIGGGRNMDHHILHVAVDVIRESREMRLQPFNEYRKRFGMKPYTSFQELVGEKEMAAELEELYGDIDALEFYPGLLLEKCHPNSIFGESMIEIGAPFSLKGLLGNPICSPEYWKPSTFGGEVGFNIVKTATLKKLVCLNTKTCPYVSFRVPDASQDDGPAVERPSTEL

Specific activity hCOX-1 (hCOX-1): 4.5 µmol/min/mg | Specific activity oCOX-1 (oCOX-1): 3.5 µmol/min/mg
SMILES: COc1ccc(-c2noc(CC(=O)O)c2-c2ccc(OC)cc2)cc1 [mofezolac]
